In patent US20220401461A1, “Pharmaceutical Composition for Protecting Cartilage” (Kyoto University, priority 2019, published 2022):
Counter-ions that a name gives are not always drawn.

Assays:
[1] = test system: mouse chondrocytes; experiment: Tm stress: relative number of viable cells (WST8) in mouse chondrocytes cultured in the presence of tunicamycin; format: cell-based; conditions: chondrocytes differentiated from ATDCS cells; tunicamycin 0.2 μg/mL; KUS121 50 or 100 μM; 40 hours; FIG. 1
Procedure: (§1) Cells of mouse teratocarcinoma-derived cell line ATDCS (J Cell Biol. 1996 April; 133(2):457-68) were cultured in DMEM/Ham's F12 medium containing 5% FBS. The cells were passaged to a 12-well plate at the density of 3×10^4 cells/well and cultured in the presence of insulin (10 μg/ml) (start of differentiation induction, Day 0). The cells were differentiated into chondrocytes by differentiation induction for 14 to 21 days. The cells were used in the following experiments.
On Day 15 of the differentiation induction, tunicamycin (0.2 μg/mL), which induces ER stress, and KUS121 (50 or 100 μM) were added to the medium and the chondrocytes were cultured for 40 hours. Relative number of viable cells was determined by using 2-(2-methoxy-4-nitrophenyl)-3-(4-nitrophenyl)-5-(2,4-disulfophenyl)-2H-tetrazolium monosodium salt (WST8).

[2] = test system: mouse chondrocytes; experiment: Glucose starvation stress: relative number of viable cells (WST8) in mouse chondrocytes; format: cell-based; conditions: chondrocytes differentiated from ATDCS cells; medium containing no glucose; 100 μM KUS121; five days; FIG. 2
Procedure: as §1
The chondrocytes were cultured in the medium containing no glucose and containing KUS 121 (50 or 100 μM) for five days from Day 17 of the differentiation induction. Relative number of viable cells was determined by using WST8.

[3] = test system: mouse chondrocytes; experiment: TNFα stress: relative number of viable cells (WST8) in mouse chondrocytes; format: cell-based; conditions: chondrocytes differentiated from ATDCS cells; TNFα 10 ng/mL; KUS121 50 or 100 μM; 48 hours; FIG. 3
Procedure: as §1
On Day 15 of the differentiation induction, TNFα (10 ng/mL), which induces apoptosis, and KUS121 (50 or 100 μM) were added to the medium and the chondrocytes were cultured for 48 hours. Relative number of viable cells was determined by using WST8.

[4] = test system: Bip and CHOP in mouse chondrocytes; experiment: Western blotting for Bip and CHOP in mouse chondrocytes cultured in the presence of tunicamycin; format: cell-based; conditions: tunicamycin 3 μg/mL; KUS121 50 or 100 μM; 6 hours; FIG. 4
Procedure: as §1
On Day 15 of the differentiation induction, tunicamycin (3 μg/mL) and KUS121 (50 or 100 μM) were added to the medium and the chondrocytes were cultured for 6 hours. The cells were subjected to Western blotting. As primary antibodies, Bip (Cell Signaling #3177S), CHOP (Proteintech #15204-1-AP), and actin (Sigma #A5441) were used. Expression of Bip and CHOP was suppressed in the presence of KUS121. Bip is an ER stress marker and CHOP induces apoptosis related to ER stress.

[5] = test system: cCasp3 in mouse chondrocytes; experiment: Western blotting for cCasp3 in mouse chondrocytes cultured in the presence of TNFα; format: cell-based; conditions: TNFα 20 ng/mL; KUS121 50 or 100 μM; 48 hours; cCasp3 antibody; FIG. 5
Procedure: as §1
On Day 15 of the differentiation induction, TNFα (20 ng/mL) and KUS121 (50 or 100 μM) were added to the medium and the chondrocytes were cultured for 48 hours. The cells were subjected to Western blotting. As primary antibodies, cCasp3 (Cell Signaling #9661S) and actin (Sigma #A5441) were used. Expression of Casp3, an apoptosis marker, was suppressed in the presence of KUS121.

[6] = test system: human chondrocytes; experiment: Viable cells (CCK-8) in monolayer human chondrocytes cultured in the presence of tunicamycin; format: cell-based; conditions: tunicamycin 3 μg/mL and KUS121 100 μM for 24 hours, then 0.5% FBS medium for 48 hours; FIG. 6
Procedure: Chondrocytes were collected from a knee joint removed from a patient in knee replacement surgery. The cells were cultured in DMEM-F12 (Gibco, 11330-032) on a 24-well plate to 70-80% confluence and cultured in the medium without FBS for further 24 hours. The cells were then cultured in the medium containing tunicamycin (3 μg/mL) and KUS121 (100 μM) for 24 hours. The medium was replaced with the medium containing 0.5% FBS and the cells were cultured for 48 hours. For counting viable cells, CCK-8 (DOJINDO LABORATORIES) was added, which is a kit for cell counting comprising WST8 as a chromogenic substrate. The cells were incubated for 15 minutes at 37° C. and the absorbances (450 nm, 570 nm) were determined. Viable cells were decreased by adding tunicamycin, but not decreased in the presence of KUS121.

[7] = test system: caspase 3/7 activity of human chondrocytes; experiment: Caspase 3/7 activity (Casp3/7 Glo assay) of human chondrocytes cultured in the presence of tunicamycin; format: cell-based; conditions: tunicamycin 3 μg/mL; KUS121 100 μM; 6 hours; FIG. 7
Procedure: Human chondrocytes were cultured to 70-80% confluence. Tunicamycin (3 μg/mL) and KUS121 (100 μM) were added to the medium and the cells were cultured for further 6 hours. Casp3/7 Glo assay (Promega) was used in accordance with the manufacture's instructions and caspase 3/7 activity was determined by luminometer. The caspase activity was increased by adding tunicamycin, but not increased in the presence of KUS121.

[8] = test system: Bip, ATF4, and CHOP in human chondrocytes; experiment: Western blotting for Bip, ATF4 and CHOP in human chondrocytes cultured in the presence of tunicamycin; format: cell-based; conditions: tunicamycin 3 μg/mL; KUS121 12.5, 25, 50, or 100 μM; 8 hours; in a dose-dependent manner; FIG. 8
Procedure: Human chondrocytes were cultured to 70-80% confluence. Tunicamycin (3 μg/mL) and KUS121 (12.5, 25, 50, or 100 μM) were added to the medium and the cells were cultured for further 8 hours. Proteins were collected from the cells and subjected to Western blotting. As primary antibodies, Bip (Cell Signaling Technology, #3177), ATF4 (Cell Signaling Technology, #11815), CHOP (Cell Signaling Technology, #2895), and β-actin (Cell Signaling Technology, #5125) were used. In the absence of tunicamycin expressions of ATF4 and CHOP were observed, but the expression levels were quite low. In the presence of tunicamycin KUS121 suppressed expression of Bip, ATF4, and CHOP in a dose-dependent manner.

[9] = test system: p-JNK in human chondrocytes; experiment: Western blotting for p-JNK and JNK in human chondrocytes cultured in the presence of tunicamycin; format: cell-based; conditions: tunicamycin 3 μg/mL; KUS121 12.5, 25, 50, or 100 μM; 8 hours; in a dose-dependent manner; FIG. 9
Procedure: Human chondrocytes were cultured to 70-80% confluence. Tunicamycin (3 μg/mL) and KUS121 (12.5, 25, 50, or 100 μM) were added to the medium and the cells were cultured for further 8 hours. Proteins were collected from the cells and subjected to Western blotting. As primary antibodies, p-JNK (Cell Signaling Technology, #4668), JNK (Cell Signaling Technology, #9252), and β-actin (Cell Signaling Technology, #5125) were used. KUS121 suppressed expression of phosphorylated JNK (p-JNK), a MAP kinase, in a dose-dependent manner.

[10] = test system: MMP13 and MMP1 in human chondrocytes; experiment: Gene expression of MMP13 and MMP1 by real-time PCR in human chondrocytes cultured in the presence of IL-1β; format: cell-based; conditions: IL-1β 2 ng/mL; KUS121 12.5, 25, 50, or 100 μM; 24 hours; in a dose-dependent manner; FIG. 10
Procedure: Human chondrocytes were cultured on a 24-well plate to 70-80% confluence and cultured in the medium without FBS for 24 hours. The cells were then cultured in the medium containing IL-1β (2 ng/mL) and KUS121 (12.5, 25, 50, or 100 μM) for 24 hours. Messenger RNAs were extracted from the cells and cDNAs were generated by reverse transcription. Gene expression levels of MMP13 and MMP1 were determined by real-time PCR. KUS121 suppressed expression of MMP13 and MMP1, which are collagenases, in a dose-dependent manner.

[11] = test system: human femorotibial joint cartilage; experiment: Organ culture of human cartilage: number of viable cells (CCK-8); format: cell-based; conditions: cartilage of posterolateral femoral condyle; KUS121 100 μM; 72 hours; FIG. 11
Procedure: From a knee joint removed from a patient in knee replacement surgery cartilage of femorotibial joint (posterolateral femoral condyle) was collected by using a biopsy punch having a diameter of 7 mm. The cartilage was cultured in the medium without FBS for 48 hours and then in the medium containing KUS121 (100 μM) for 72 hours. Number of viable cells was determined by washing the cartilage with PBS, adding CCK-8, incubating the cartilage for 30 minutes at 37° C., and determining the absorbances (450 nm, 570 nm). Number of viable cells was larger in the presence of KUS121.

[12] = test system: Knee osteoarthritis model rats; experiment: Knee osteoarthritis model (monoiodoacetate, MIA) in rats; format: in vivo; conditions: rat, 50 mg/Kg/day intraperitoneally, two weeks after MIA administration
Procedure: It is known that intraarticularly administered monoiodoacetate (MIA) damages chondrocytes and suppresses secretin of collagen and proteoglycan to induce osteoarthritis (M. Udo et al., Osteoarthritis Cartilage. 2016, 24:1284-91). Knee osteoarthritis model rats were generated by administering 0.5 mg of monoiodoacetate (MIA) in 25 μl of saline solution into knee joint cavities of both hind limbs of healthy rats. Prior to the MIA administration, 50 mg/Kg/day of KUS121 was administered intraperitoneally for four days. After the MIA administration, the same amount of KUS121 was administered intraperitoneally five days per week.
Two weeks after the MIA administration the knee cartilages of the rats were resected, fixed with 10% neutral buffered formalin for about one week, demineralized with Morse's solution (for two weeks) or EDTA (for one month), cleaved along the medial collateral ligament, and embedded in paraffin with the cut surface facing up. Sections were cut every 100-200 μm with a thickness of 3-6 μm. The sections were stained with Safranin-O, which stains chondrocytes, and observed with a fluorescence microscope (KEYENCE BZ9000). […] In addition, three blinded evaluators evaluated ORSI scores for medial femur, lateral femur, medial tibia, and lateral tibia on the basis of the results of the Safranin-O staining. […]

[13] = test system: traumatic cartilage damage model rats; experiment: Traumatic cartilage damage model (periodic compression to knee joints) in rats; format: in vivo; conditions: rat, KUS121 20 mg/ml, 100 μl intraarticularly; for Modified Mankin score of posterolateral femoral condyle: versus control group, FIG. 15
Text: It is known that a mouse that has been given periodic compression to a knee joint can be used as a model of post-traumatic cartilage damage (Wu P, Sandell L, et al. Arthritis Rheumatol. 2014; 66(5):1256-65). In a similar manner, a rat post-traumatic cartilage damage model was generated. Specifically, a knee of a hind limb was deeply flexed and fixed on the table of Autograph (Shimadzu Corporation) with the patella facing down. A vertical load of 5 N was applied downward from the heel, then 240 loads of 20 N at the maximum were applied with 5-second intervals. […] This model was used for the following experiments.
Knee joints of 12-week old male Wister rats (five rats per group) were given periodic compression by the method described above. KUS121 (20 mg/ml) in 5% glucose solution (100 μl) was intraarticularly administered to rats in KUS 121 group immediately before the operation and at Day 1, 2, and 3 after the operation. To rats in the control group 5% glucose solution (100 μl) was administered. The rats were sacrificed two or four weeks after the operation. Damages of posterolateral femoral condyle were histologically evaluated.

Cc1cc(F)ccc1-c1ccc(/N=N/c2cc(S(=O)(=O)O)c3ccccc3c2N)cn1 [KUS121, 4-amino-3-[6-(4-fluoro-2-methylphenyl)pyridine-3-ylazo]naphthalene-1-sulfonic acid sodium salt]
Cell death (relative number of viable cells, WST8) [1]: significantly suppressed
Cell death (relative number of viable cells, WST8) [2]: significantly suppressed
Cell death (relative number of viable cells, WST8) [3]: significantly suppressed
Expression of Bip (ER stress marker), Western blotting [4]: suppressed
Expression of CHOP, Western blotting [4]: suppressed
Expression of Casp3, an apoptosis marker, Western blotting [5]: suppressed
Viable cells (CCK-8) [6]: not decreased
Caspase 3/7 activity [7]: not increased
Expression of ATF4, Western blotting [8]: suppressed
Expression of Bip, Western blotting [8]: suppressed
Expression of CHOP, Western blotting [8]: suppressed
Expression of phosphorylated JNK (p-JNK), Western blotting [9]: suppressed
Gene expression of MMP1, real-time PCR [10]: suppressed
Gene expression of MMP13, real-time PCR [10]: suppressed
Number of viable cells (CCK-8) [11]: larger
Safranin-O staining of knee cartilage sections (indicates chondrocytes) ([12]; versus control group (PBS), FIG. 12, 13): darker
ORSI score (mean of medial femur, lateral femur, medial tibia, lateral tibia) ([12]; versus control group, FIG. 14): lower
Volume of cartilage damage in posterolateral femoral condyle ([13]; four weeks after the operation, FIG. 16): significantly reduced
Number of chondrocytes in posterolateral femoral condyle ([13]; four weeks after the operation, FIG. 17): significantly higher
Modified Mankin score of posterolateral femoral condyle ([13]; four weeks after the operation): no significant difference
Modified Mankin score of posterolateral femoral condyle ([13]; two weeks after the operation): significantly lower
